In PubChem BioAssay (NCI):
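96-well plates; 48 h exposure; 5 concentrations. Endpoints by linear interpolation between flanking doses. Not reached: highest tested concentration assigned. TGI: concentration producing complete growth inhibition.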

Legend:
Test in all cases: inhibition of tumour cell growth, NCI panel, 48 h
[1] = system: UO-31 renal
[2] = system: MDA-MB-231 breast
[3] = system: UACC-62 melanoma
[4] = system: NCI-H23 lung
[5] = system: ACHN renal
[6] = system: RPMI-8226 leukemia
[7] = system: SNB-75 CNS
[8] = system: MOLT-4 leukemia
[9] = system: OVCAR-4 ovarian
[10] = system: UACC-257 melanoma
[11] = system: EKVX NSCLC
[12] = system: MDA-MB-435
[13] = system: IGROV1 ovarian
[14] = system: 786-0 renal
[15] = system: HCT-15 colon
[16] = system: A498 renal
[17] = system: SF-539 CNS
[18] = system: NCI-H460 lung
[19] = system: SNB-19 CNS
[20] = system: MDA-N
[21] = system: BT-549 breast
[22] = system: HCC-2998 colon
[23] = system: SK-MEL-28 melanoma
[24] = system: NCI-H522 lung
[25] = system: HCT-116 colon
[26] = system: HOP-92 NSCLC
[27] = system: MALME-3M melanoma
[28] = system: SN12C renal
[29] = system: MCF7 breast
[30] = system: OVCAR-8 ovarian
[31] = system: CAKI-1 renal
[32] = system: SW-620 colon
[33] = system: NCI-H226 lung
[34] = system: OVCAR-5 ovarian
[35] = system: SF-295 CNS
[36] = system: KM12 colon
[37] = system: M14 melanoma
[38] = system: K-562 leukemia
[39] = system: HL-60(TB) leukemia
[40] = system: LOX IMVI melanoma
[41] = system: OVCAR-3 ovarian
[42] = system: HT29 colon
[43] = system: PC-3 prostate
[44] = system: U251 CNS
[45] = system: A549 NSCLC
[46] = system: SK-OV-3 ovarian
[47] = system: HOP-62 NSCLC
[48] = system: HS 578T breast
[49] = system: T-47D breast
[50] = system: SF-268 CNS
[51] = system: TK-10 renal
[52] = system: CCRF-CEM leukemia
[53] = system: SK-MEL-5 melanoma
[54] = system: SK-MEL-2 melanoma
[55] = system: RXF 393 renal
[56] = system: NCI/ADR-RES ovarian
[57] = system: DU-145 prostate
[58] = system: SR leukemia
[59] = system: COLO 205 colon

## COc1cccc(OC)c1NC(=O)C(=O)Nn1c(NNC(=O)c2ccncc2)nc2ccccc2c1=O
[1]
  TGI: > 100 µM
[2]
  TGI: > 100 µM
[3]
  TGI: > 100 µM
[4]
  TGI: > 100 µM
[5]
  TGI: > 100 µM
[6]
  TGI: > 100 µM
[7]
  TGI: > 100 µM
[8]
  TGI: > 100 µM
[9]
  TGI: > 100 µM
[10]
  TGI: > 100 µM
[11]
  TGI: > 100 µM
[12]
  TGI: > 100 µM
[13]
  TGI: > 100 µM
[14]
  TGI: > 100 µM
[15]
  TGI: > 100 µM
[16]
  TGI: > 100 µM
[17]
  TGI: > 100 µM
[18]
  TGI: > 100 µM
[19]
  TGI: > 100 µM
[20]
  TGI: > 100 µM
[21]
  TGI: > 100 µM
[22]
  TGI: > 100 µM
[23]
  TGI: > 100 µM
[24]
  TGI: > 100 µM
[25]
  TGI: > 100 µM
[26]
  TGI: > 100 µM
[27]
  TGI: > 100 µM
[28]
  TGI: > 100 µM
[29]
  TGI: > 100 µM
[30]
  TGI: > 100 µM
[31]
  TGI: > 100 µM
[32]
  TGI: > 100 µM
[33]
  TGI: > 100 µM
[34]
  TGI: > 100 µM
[35]
  TGI: > 100 µM
[36]
  TGI: > 100 µM
[37]
  TGI: > 100 µM
[38]
  TGI: > 100 µM
[39]
  TGI: > 100 µM
[40]
  TGI: > 100 µM
[41]
  TGI: > 100 µM
[42]
  TGI: > 100 µM
[43]
  TGI: > 100 µM
[44]
  TGI: > 100 µM
[45]
  TGI: > 100 µM
[46]
  TGI: > 100 µM
[47]
  TGI: > 100 µM
[48]
  TGI: > 100 µM
[49]
  TGI: > 100 µM
[50]
  TGI: > 100 µM
[51]
  TGI: > 100 µM
[52]
  TGI: > 100 µM
[53]
  TGI: > 100 µM
[54]
  TGI: > 100 µM
[55]
  TGI: > 100 µM
[56]
  TGI: > 100 µM

## COc1cc(S(=O)(=O)Nc2ccc(-c3csc(N4C(=O)CSC4c4ccccc4O)n3)cc2)ccc1Cl (stereo unspecified)
[1]
  TGI: > 100 µM
[3]
  TGI: > 100 µM
[4]
  TGI: > 100 µM
[5]
  TGI: > 100 µM
[57]
  TGI: > 100 µM
[6]
  TGI: > 100 µM
[7]
  TGI: 92.2 µM
[8]
  TGI: > 100 µM
[9]
  TGI: > 100 µM
[10]
  TGI: 97.6 µM
[11]
  TGI: 85.5 µM
[12]
  TGI: > 100 µM
[13]
  TGI: > 100 µM
[14]
  TGI: > 100 µM
[15]
  TGI: > 100 µM
[17]
  TGI: > 100 µM
[18]
  TGI: 52.8 µM
[58]
  TGI: > 100 µM
[19]
  TGI: > 100 µM
[20]
  TGI: > 100 µM
[21]
  TGI: > 100 µM
[22]
  TGI: 41.4 µM
[23]
  TGI: 88.2 µM
[59]
  TGI: 61.1 µM
[24]
  TGI: 55.6 µM
[25]
  TGI: > 100 µM
[26]
  TGI: 82.1 µM
[27]
  TGI: > 100 µM
[28]
  TGI: > 100 µM
[29]
  TGI: > 100 µM
[30]
  TGI: > 100 µM
[31]
  TGI: > 100 µM
[32]
  TGI: > 100 µM
[33]
  TGI: > 100 µM
[34]
  TGI: > 100 µM
[35]
  TGI: > 100 µM
[36]
  TGI: > 100 µM
[37]
  TGI: > 100 µM
[38]
  TGI: > 100 µM
[39]
  TGI: 49.8 µM
[40]
  TGI: > 100 µM
[41]
  TGI: > 100 µM
[42]
  TGI: > 100 µM
[43]
  TGI: > 100 µM
[45]
  TGI: > 100 µM
[46]
  TGI: > 100 µM
[47]
  TGI: > 100 µM
[50]
  TGI: > 100 µM
[52]
  TGI: > 100 µM
[53]
  TGI: > 100 µM
[54]
  TGI: > 100 µM
[56]
  TGI: > 100 µM

## O=C(NC1C/C(=N/O)c2c(Br)sc(Br)c21)C(F)(F)F (stereo unspecified)
[1]
  TGI: 98.5 µM
[2]
  TGI: 30.9 µM
[3]
  TGI: > 100 µM
[4]
  TGI: > 100 µM
[5]
  TGI: > 100 µM
[57]
  TGI: > 100 µM
[7]
  TGI: > 100 µM
[8]
  TGI: > 100 µM
[9]
  TGI: 43.7 µM
[10]
  TGI: 72.3 µM
[11]
  TGI: > 100 µM
[12]
  TGI: > 100 µM
[13]
  TGI: > 100 µM
[14]
  TGI: 40.4 µM
[15]
  TGI: > 100 µM
[16]
  TGI: 57.8 µM
[17]
  TGI: 38.9 µM
[18]
  TGI: 97.2 µM
[19]
  TGI: > 100 µM
[20]
  TGI: > 100 µM
[21]
  TGI: > 100 µM
[22]
  TGI: > 100 µM
[59]
  TGI: > 100 µM
[24]
  TGI: > 100 µM
[25]
  TGI: 30.9 µM
[26]
  TGI: 32.9 µM
[27]
  TGI: > 100 µM
[28]
  TGI: 56.1 µM
[29]
  TGI: > 100 µM
[30]
  TGI: 63.2 µM
[31]
  TGI: 58 µM
[32]
  TGI: > 100 µM
[33]
  TGI: 97.7 µM
[34]
  TGI: > 100 µM
[35]
  TGI: > 100 µM
[36]
  TGI: > 100 µM
[37]
  TGI: > 100 µM
[38]
  TGI: 38.4 µM
[39]
  TGI: > 100 µM
[40]
  TGI: > 100 µM
[41]
  TGI: > 100 µM
[42]
  TGI: > 100 µM
[43]
  TGI: 45.6 µM
[44]
  TGI: 39.2 µM
[45]
  TGI: 96.9 µM
[46]
  TGI: > 100 µM
[48]
  TGI: 36.3 µM
[49]
  TGI: > 100 µM
[50]
  TGI: > 100 µM
[51]
  TGI: > 100 µM
[52]
  TGI: 48.5 µM
[53]
  TGI: 54.4 µM
[54]
  TGI: 90.1 µM
[55]
  TGI: > 100 µM
[56]
  TGI: 88.6 µM

## COC(=O)C1(Cc2ccccc2)Cc2cc3c(cc2C1O)CCC3 (stereo unspecified)
[2]
  TGI: 38.1 µM
[3]
  TGI: 32.6 µM
[4]
  TGI: 38.4 µM
[5]
  TGI: 31.9 µM
[57]
  TGI: 70.8 µM
[6]
  TGI: 54.9 µM
[7]
  TGI: > 100 µM
[8]
  TGI: 42.9 µM
[9]
  TGI: 41.7 µM
[10]
  TGI: 42.9 µM
[11]
  TGI: 50.4 µM
[12]
  TGI: 32.2 µM
[13]
  TGI: 32.1 µM
[14]
  TGI: 28.9 µM
[15]
  TGI: > 100 µM
[16]
  TGI: 40.2 µM
[17]
  TGI: 36.7 µM
[18]
  TGI: > 100 µM
[58]
  TGI: > 100 µM
[20]
  TGI: 34.6 µM
[21]
  TGI: 31.9 µM
[22]
  TGI: 60.6 µM
[23]
  TGI: 32.4 µM
[59]
  TGI: 48.1 µM
[24]
  TGI: 34.4 µM
[25]
  TGI: 31.8 µM
[26]
  TGI: 30.6 µM
[27]
  TGI: 30.7 µM
[28]
  TGI: 33.3 µM
[30]
  TGI: 65.4 µM
[31]
  TGI: 31.3 µM
[32]
  TGI: 30 µM
[33]
  TGI: 41.3 µM
[34]
  TGI: 30.4 µM
[35]
  TGI: 72 µM
[36]
  TGI: 48.3 µM
[38]
  TGI: 67.6 µM
[39]
  TGI: > 100 µM
[40]
  TGI: 34.7 µM
[41]
  TGI: 31.7 µM
[42]
  TGI: 31.6 µM
[43]
  TGI: 37.3 µM
[45]
  TGI: 59 µM
[46]
  TGI: 36 µM
[47]
  TGI: 36.9 µM
[48]
  TGI: 34.7 µM
[49]
  TGI: 62.9 µM
[50]
  TGI: > 100 µM
[51]
  TGI: 67.2 µM
[52]
  TGI: 60.1 µM
[53]
  TGI: 29.3 µM
[55]
  TGI: 32.5 µM
[56]
  TGI: 76.8 µM
